The record followed here is patent US20080092250A1, “Activity-induced pain in animal model of osteoarthritis” (priority 2006, published 2008).

In data set [1] the test system is osteoarthritic rats (unilateral i.a. MIA injection). Put plainly: Hind limb grip force (activity-induced pain) 20 days after i.a. MIA injection. It is filed as in vivo, rat. The procedure:
For evaluating the effects of reference analgesic drugs experiments were performed 20 days after induction of OA. Assessment of hind limb grip force was used as a behavioral measure of activity induced pain in adult OA rodents. Measurements of peak hind limb grip force were conducted by recording the maximum compressive force exerted on the hind limb strain gauge setup, in a commercially available grip force measurement system (Columbus Instruments, Columbus, Ohio). A group of age matched naïve animals were added to each experiment and the data obtained from the different dose groups for the compound being tested were compared to the naïve group.
(§1) All experiments have been approved by the Institutional Animal Care and Use Committee (IACUC) at Abbott Laboratories and are in strict accordance with the ethical guidelines laid down by the International Association for the Study of Pain (IASP) (Zimmermann, 1983) for the care and use of laboratory animals. […] Following injection, the animals were allowed to recover from the effects of anesthesia (usually 5-10 mins) before returning to their home cages. […] Animals were euthanized by CO2 inhalation on day 20. The injected knee joints were dissected and immediately fixed in 10% phosphate buffered formalin. The samples were then decalcified in 5% formic acid for 3 days, routinely processed and then embedded in paraffin wax. Frontal histologic sections of the femorotibial joints (6 μm) were prepared, stained with toluidine-blue and examined with a light microscope (Guzman et al., 2003).
(§2) Measurements of peak hind limb grip force were conducted by recording the maximum compressive force exerted on the hind limb strain gauge setup, in a commercially available grip force measurement system (Columbus Instruments, Columbus, Ohio). […] Additional tests were performed 1, 2, 4, 7, 10, 13, 17, 21, 24, and 28 days following the injections.
A group of age matched naïve animals were added to each experiment and the data obtained from the different dose groups for the compound being tested were compared to the naïve group. The vehicle control group for each compound being tested was assigned 0% whereas the naïve group was assigned as being 100% (normal). The % effects for each dose group was then expressed as % return to normalcy compared to the naïve group (=[100÷% increase from vehicle for naive group]×% increase from vehicle for treatment group) (% increase from vehicle=[Treatment CFmax−Vehicle CFmax)/Vehicle CFmax]×100). All experiments evaluating drug effects in this model were conducted in a randomized blinded fashion.

Another data set relates to rats. To be noted: 28 days after unilateral i.a. injection, 3 mg; baseline 1090.17±52.85 g. The method, then:
as §1, §2

The next data set concerns naïve rats. Put plainly: Hind limb grip force in naïve (non-MIA injected) rats. The method, then:
as §2

Where [2] appears, read: Rattus norvegicus, po, 480 h; read-out: % effect (% return to normalcy of grip force).
[3] abbreviates: Rattus norvegicus, po, 480 h; read-out: CI95% of ED50.
Setting [4] is: Rattus norvegicus, po, 480 h; read-out: ED50, reversal of decreased grip force.

Where two headings read alike, the source gives them in different places.

By ED50 is commonly meant the dose at which the effect has come halfway, by size or by number of responders. With `O=C(O)Cc1ccccc1Nc1c(Cl)cccc1Cl` [diclofenac], in data set [1] (setting [2]), the inhibition in vivo at 100 µmol/kg is 77 ± 5%. Moreover, the results for the ED50 in data set [1] (setting [3]) and in data set [1] (setting [4]) were 22 to 38 µmol/kg and 29 µmol/kg, respectively.

Consider `CC(=O)Nc1ccc(O)cc1` [acetaminophen], for which the inhibition in vivo at 300 µmol/kg in data set [1] (setting [2]) was found to be 23 ± 11%.

As for `COc1ccc2c(c1)c(CC(=O)O)c(C)n2C(=O)c1ccc(Cl)cc1` [indomethacin], in data set [1] (setting [2]), the inhibition in vivo at 85 µmol/kg is 44 ± 6%.

With `Cc1ccc(-c2cc(C(F)(F)F)nn2-c2ccc(S(N)(=O)=O)cc2)cc1` [celecoxib], the “% effect, chronic dosing” value in data set [1] (10 μmol/kg p.o. b.i.d. for 12 days beginning 7 days after MIA) is listed as 33±3.0%; in data set [1] (30 μmol/kg p.o. b.i.d. for 12 days beginning 7 days after MIA), 67±3%. For the same compound, the “% effect, acutely dosed group of chronic study” value is given as 9±3% in data set [1] (10 μmol/kg p.o., acute) and 42±3% in data set [1] (30 μmol/kg p.o., acute). The “% effect, acute positive control of chronic study” value in data set [1] (100 μmol/kg p.o., acute) amounted to 88±4%. Further, in data set [1] (setting [2]), the inhibition in vivo at 100 µmol/kg amounted to 87 ± 6%. Besides, the ED50 was 16 to 42 µmol/kg in data set [1] (setting [3]) and 27 µmol/kg in data set [1] (setting [4]).

Consider `COc1cccc(C2(O)CCCCC2CN(C)C)c1` (stereo not shown) [tramadol], for which the inhibition in vivo at 100 µmol/kg in data set [1] (Rattus norvegicus, ip, 480 h, read-out: % effect (% return to normalcy of grip force)) was determined as 79 ± 5%. Besides, the ED50 was 32 to 54 µmol/kg in data set [1] (Rattus norvegicus, ip, 480 h, read-out: CI95% of ED50) and 40 µmol/kg in data set [1] (Rattus norvegicus, ip, 480 h, read-out: ED50, reversal of decreased grip force).

Consider sodium monoiodoacetate [MIA], for which, in the data set with rats, the “hind limb grip force (GF)” value worked out at 420.96 ± 25.07 g.

For `Nc1nnc(-c2cccc(Cl)c2Cl)c(N)n1` [Lamotrigine, lamotrigine], in data set [1] (setting [2]), the inhibition in vivo at 100 µmol/kg was 30 ± 3%.

Consider `CC(C)Cc1ccc(C(C)C(=O)O)cc1` (stereo not shown) [ibuprofen], for which the inhibition in vivo at 300 µmol/kg in data set [1] (setting [2]) amounted to 29 ± 8%.

`CN1CC[C@]23c4c5ccc(O)c4O[C@H]2[C@@H](O)C=C[C@H]3[C@H]1C5` [morphine]: in data set [1] (Rattus norvegicus, sc, 480 h, read-out: % effect (% return to normalcy of grip force)), the inhibition in vivo at 8 µmol/kg worked out at 34 ± 3%. Further, the figures for the “reduction of grip force vs untreated naïve rats” value with naïve rats (8 μmol/kg (6 mg/kg) s.c.) and in the data set with naïve rats (13 μmol/kg (10 mg/kg) s.c.) were 13±3% and 52±3%, respectively.

Regarding `NCC1(CC(=O)O)CCCCC1` [gabapentin], the inhibition in vivo at 500 µmol/kg in data set [1] (Rattus norvegicus, po, 480 h, read-out: % effect (% return to normalcy of grip force)) was determined as 61 ± 8%. For the same compound, the ED50 is 100 to 295 µmol/kg in data set [1] (Rattus norvegicus, po, 480 h, read-out: CI95% of ED50) and 159 µmol/kg in data set [1] (Rattus norvegicus, po, 480 h, read-out: ED50, reversal of decreased grip force).
